Consider 14 compounds from US10787442B2, “Modulators of indoleamine 2,3-dioxygenase” (GLAXOSMITHKLINE INTELLECTUAL PROPERTY DEVELOPMENT LIMITED, priority 2016, dated 2020).

Read-outs that look alike come from different tables or passages of the source.

One data set has as its target T1, ePL tagged IDO1 (Homo sapiens, UniProt P14902).
T1 construct: expressed in transfected cells; host or cells: HeLa cells transduced with BacMam virus
In words: CETSA (Cellular Thermal Shifting assay). The data set is classed as binding. Conditions: Hela cells, 3 hours at 37° C., heated at 53° C. for 3 min. The method, then:
Cellular Thermal Shifting assays were used to directly monitor the ligand binding to target proteins in cells. Hela cells were transduced with BacMam virus expressing ePL tagged IDO1 overnight. The cells were then plated over the compounds for 3 hours at 37° C. in cell culture medium containing 1% FBS. The plates were then sealed and heated at 53° C. for 3 min. InCell Hunter reagents were added and luminescence was read in 90 min.

Data set [1] deals with human epithelial HeLa cells. In words: HeLa cytotoxicity assay (CellTiter-Glo). The format is cell-based. As to conditions: cytotoxicity in stimulated HeLa cells, recorded as pCC50. The method, then: (§1) Compounds of the present invention were tested via high-throughput cellular assays utilizing detection of kynurenine via mass spectrometry and cytotoxicity as end-points. […] Compounds with IDO1 inhibitory properties decreased the amount of kynurenine produced by the cells via the tryptophan catabolic pathway. Cellular toxicity due to the effect of compound treatment was measured using CellTiter-Glo® reagent (CTG) (Promega Corporation, Madison, Wis.), which is based on luminescent detection of ATP, an indicator of metabolically active cells.
(§2) In preparation for the assays, test compounds were serially diluted 3-fold in DMSO from a typical top concentration of 1 mM or 5 mM and plated at 0.5 μL in 384-well, polystyrene, clear bottom, tissue culture treated plates with lids (Greiner Bio-One, Kremsmünster, Austria) to generate 11-point dose response curves. Low control wells (0% kynurenine or 100% cytotoxicity) contained either 0.5 μL of DMSO in the presence of unstimulated (−IFN-γ) HeLa cells for the mass spectrometry assay or 0.5 μL of DMSO in the absence of cells for the cytotoxicity assay, and high control wells (100% kynurenine or 0% cytotoxicity) contained 0.5 μL of DMSO in the presence of stimulated (+IFN-γ) HeLa cells for both the mass spectrometry and cytotoxicity assays.
(§3) Frozen stocks of HeLa cells were washed and recovered in DMEM high glucose medium with HEPES (Thermo Fisher Scientific, Inc., Waltham, Mass.) supplemented with 10% v/v certified fetal bovine serum (FBS) (Thermo Fisher Scientific, Inc., Waltham, Mass.), and 1× penicillin-streptomycin antibiotic solution (Thermo Fisher Scientific, Inc., Waltham, Mass.). The cells were diluted to 100,000 cells/mL in the supplemented DMEM medium. 50 μL of either the cell suspension, for the mass spectrometry assay, or medium alone, for the cytotoxicity assay, were added to the low control wells, on the previously prepared 384-well compound plates, resulting in 5,000 cells/well or 0 cells/well respectively. IFN-γ was added to the remaining cell suspension at a final concentration of 10 nM, and 50 μL of the stimulated cells were added to all remaining wells on the 384-well compound plates. The plates, with lids, were then placed in a 37° C., 5% CO2 humidified incubator for 2 days.
(§4) Following incubation, the 384-well plates were removed from the incubator and allowed to equilibrate to room temperature for 30 minutes. For the cytotoxicity assay, CellTiter-Glo® was prepared according to the manufacturer's instructions, and 10 μL were added to each plate well. After a twenty minute incubation at room temperature, luminescence was read on an EnVision® Multilabel Reader (PerkinElmer Inc., Waltham, Mass.). For the mass spectrometry assay, 10 μL of supernatant from each well of the compound-treated plates were added to 40 μL of acetonitrile, containing 10 μM of an internal standard for normalization, in 384-well, polypropylene, V-bottom plates (Greiner Bio-One, Kremsmünster, Austria) to extract the organic analytes. Following centrifugation at 2000 rpm for 10 minutes, 10 μL from each well of the acetonitrile extraction plates were added to 90 μL of sterile, distilled H2O in 384-well, polypropylene, V-bottom plates for analysis of kynurenine and the internal standard on the RapidFire 300 (Agilent Technologies, Santa Clara, Calif.) and 4000 QTRAP MS (SCIEX, Framingham, Mass.). MS data were integrated using Agilent Technologies' RapidFire Integrator software, and data were normalized for analysis as a ratio of kynurenine to the internal standard.
(In ATP-based viability assays light output follows the ATP content of the culture.)

For data set [2], the target named is indoleamine 2, 3-dioxygenase (IDO1) (Homo sapiens, UniProt P14902). In words: IDO1 HeLa RapidFire MS Assay (kynurenine by mass spectrometry). As to conditions: HeLa cells stimulated with IFN-γ, 2 days; recorded as pIC50; read-out: IDO1 HeLa PXC50 (converted). The format is cell-based. The method, then:
IDO1 HeLa RapidFire MS Assay
as §1, §2, §3, §4

In data set [3] the test system is human peripheral blood mononuclear cells (PBMC). In words: PBMC cytotoxicity assay (CellTiter-Glo). The data set is classed as cell-based. As to conditions: cytotoxicity in stimulated PBMC, recorded as pCC50.
For another data set, the system named is PAN02 pancreatic cells. Conditions: cited from earlier work.
[4] abbreviates: first value, read-out: pXC50_1 (converted).
The mark [5] stands for this setting: second value, read-out: pXC50_2 (converted).

indoleamine 2, 3-dioxygenase (IDO1), sequence (P14902 whole entry): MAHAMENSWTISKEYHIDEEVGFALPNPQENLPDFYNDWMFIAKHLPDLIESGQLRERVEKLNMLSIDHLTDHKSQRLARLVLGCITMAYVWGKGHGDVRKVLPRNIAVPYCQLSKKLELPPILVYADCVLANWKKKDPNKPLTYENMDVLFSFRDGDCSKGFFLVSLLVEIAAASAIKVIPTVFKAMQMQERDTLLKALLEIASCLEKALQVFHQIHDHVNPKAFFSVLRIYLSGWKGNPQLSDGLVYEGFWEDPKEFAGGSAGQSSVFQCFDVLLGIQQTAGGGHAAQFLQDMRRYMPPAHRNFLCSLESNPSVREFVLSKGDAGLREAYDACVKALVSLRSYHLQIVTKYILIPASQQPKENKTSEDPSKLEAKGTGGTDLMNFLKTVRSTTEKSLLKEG
T1 sequence (P14902 whole entry): as above

For `CC(C)CN(c1ncc([C@H](C)CC(=O)O)cc1Nc1nc(C(F)(F)F)ns1)C1CCOCC1` [Example 3, (R)-3-(6-(isobutyl(tetrahydro-2H-pyran-4-yl)amino)-5-((3-(trifluoromethyl)-1,2,4-thiadiazol-5-yl)amino)pyridin-3-yl)butanoic acid], the EC50 at ePL tagged IDO1 (setting [4]) is 0.162 µM; at ePL tagged IDO1 (setting [5]), 0.186 µM. Also, the HELA_IDO1_TOX_PXC50 in data set [1] is given as <5. Besides, the IC50 in data set [2] is 0.01 µM. Further, the “PBMC_TOX PXC50” value in data set [3] is <5.0.
With `CC(C)CN(c1ncc([C@H](C)CC(=O)O)cc1Nc1ccc(C#N)cn1)C1CCOCC1` [Example 57, (3R)-3-{5-[(5-cyanopyridin-2-yl)amino]-6-[(2-methylpropyl)(oxan-4-yl)amino]pyridin-3-yl}butanoic acid], the figures for the EC50 on ePL tagged IDO1 (setting [4]) and at ePL tagged IDO1 (setting [5]) were 5.01 µM and 3.09 µM, respectively. Moreover, the “PBMC_TOX PXC50” value in data set [3] is on record as <5.0.
As for `NS(=O)(=O)NCCNc1nonc1C(=NO)Nc1ccc(F)c(Br)c1` [INCB204360], the “effect against the same tumor” value in the data set with PAN02 pancreatic cells (immune-deficient mice) was “without effect”. Also, the “inhibition of tumor growth” value with PAN02 pancreatic cells (immunocompetent mice, orally dosed) was “significant dose-dependent inhibition of tumor growth”.
Consider `CC(C)CN(c1ncc(C(C)CC(=O)O)cc1Nc1nc(Cl)ns1)C1CCOCC1` (stereo not shown) [Example 34, 3-{5-[(3-chloro-1,2,4-thiadiazol-5-yl)amino]-6-[(2-methylpropyl)(oxan-4-yl)amino]pyridin-3-yl}butanoic acid], for which, in data set [1], the HELA_IDO1_TOX_PXC50 is on record as <5. Besides, the IC50 in data set [2] was 0.316 µM. For the same compound, in data set [3], the “PBMC_TOX PXC50” value is reported as <5.0.
For the compound `CC(C)CN(c1ncc(C(C)CC(=O)O)cc1Nc1nc(C(F)(F)F)ns1)C1CCOCC1` (stereo not shown) [Example 31, 3-{6-[(2-methylpropyl)(oxan-4-yl)amino]-5-{[3-(trifluoromethyl)-1,2,4-thiadiazol-5-yl]amino}pyridin-3-yl}butanoic acid], in data set [1], the HELA_IDO1_TOX_PXC50 was <5. The IC50 in data set [2] is 0.00501 µM. Also, the “PBMC_TOX PXC50” value in data set [3] is recorded as <5.0.
The matching figures for `CC(C)CN(c1ncc([C@H](C)CC(=O)O)cc1Nc1nc(C(F)(F)F)ns1)C1CC(F)(F)C1` [Example 20, (R)-3-(6-((3,3-difluorocyclobutyl)(isobutyl)amino)-5-((3-(trifluoromethyl)-1,2,4-thiadiazol-5-yl)amino)pyridin-3-yl)butanoic acid]: <5, 0.0126 µM and <5.0.
In the case of `CC(C)CN(CC(C)C)c1ncc(C(C)CC(=O)O)cc1Nc1nc(Cl)ns1` (stereo not shown) [Example 32, 3-{6-[bis(2-methylpropyl)amino]-5-[(3-chloro-1,2,4-thiadiazol-5-yl)amino]pyridin-3-yl}butanoic acid], the HELA_IDO1_TOX_PXC50 in data set [1] is <5. In addition, in data set [2], the IC50 is 0.631 µM. The “PBMC_TOX PXC50” value in data set [3] is reported as <5.0.
In the same order, the values of `CC(C)CN(CC(C)C)c1ncc([C@H](C)CC(=O)O)cc1Nc1nc(C(F)(F)F)ns1` [Example 40, (3R)-3-{6-[bis(2-methylpropyl)amino]-5-{[3-(trifluoromethyl)-1,2,4-thiadiazol-5-yl]amino}pyridin-3-yl}butanoic acid] are <5, 0.00794 µM and <5.6.
`CC(C)CN(c1ncc(-c2ccccc2C(=O)O)cc1Nc1nc(C(F)(F)F)ns1)C1CCOCC1` [Example 29, 2-(6-(isobutyl(tetrahydro-2H-pyran-4-yl)amino)-5-((3-(trifluoromethyl)-1,2,4-thiadiazol-5-yl)amino)pyridin-3-yl)benzoic acid]: the HELA_IDO1_TOX_PXC50 in data set [1] is <5. For the same compound, the IC50 in data set [2] was 0.0158 µM. Also, the “PBMC_TOX PXC50” value in data set [3] is <5.0.
Regarding `CC(C)CN(c1ncc(C(C)CC(=O)O)cc1Nc1ccc(C(F)(F)F)cn1)C1CCOCC1` (stereo not shown) [Example 2, 3-(6-(isobutyl(tetrahydro-2H-pyran-4-yl)amino)-5-((5-(trifluoromethyl)pyridin-2-yl)amino)pyridin-3-yl)butanoic acid], in data set [1], the HELA_IDO1_TOX_PXC50 was <5. In addition, in data set [2], the IC50 is 0.01 µM. Moreover, the “PBMC_TOX PXC50” value in data set [3] was <5.0.
As for `C[C@H](CC(=O)O)c1cnc(N(CCCCCNC(=O)OC2CC/C=C/CCC2)C2CCOCC2)c(Nc2ccc(Cl)cn2)c1` (stereo partly drawn) [Example 84, (3R)-3-{5-[(5-chloropyridin-2-yl)amino]-6-{[5-({[(4E)-cyclooct-4-en-1-yloxy]carbonyl}amino)pentyl](oxan-4-yl)amino}pyridin-3-yl}butanoic acid], the HELA_IDO1_TOX_PXC50 in data set [1] is reported as <5. Also, the IC50 in data set [2] was 0.01 µM. The “PBMC_TOX PXC50” value in data set [3] was <5.0.
As to `CC(C)CN(c1ncc([C@H](C)CC(=O)O)cc1Nc1cnc(Cl)nc1)C1CCOCC1` [Example 5, (R)-3-(5-((2-chloropyrimidin-5-yl)amino)-6-(isobutyl(tetrahydro-2H-pyran-4-yl)amino)pyridin-3-yl)butanoic acid], the HELA_IDO1_TOX_PXC50 in data set [1] is given as <5. Further, the IC50 in data set [2] is 0.0158 µM. Moreover, the “PBMC_TOX PXC50” value in data set [3] is reported as <5.0.
Regarding `CC(C)CN(c1ncc([C@H](C)CC(=O)O)cc1Nc1ccc(Cl)c(F)n1)C1CCOCC1` [Example 7, (R)-3-(5-((5-chloro-6-fluoropyridin-2-yl)amino)-6-(isobutyl(tetrahydro-2H-pyran-4-yl)amino)pyridin-3-yl)butanoic acid], the HELA_IDO1_TOX_PXC50 in data set [1] is recorded as <5. The IC50 in data set [2] is 0.0126 µM. The “PBMC_TOX PXC50” value in data set [3] is recorded as <5.0.
In the same order, the values of `C[C@H](CC(=O)O)c1cnc(N(CCCCCN)C2CCOCC2)c(Nc2ccc(Cl)cn2)c1` [Example 83, (3R)-3-{6-[(5-aminopentyl)(oxan-4-yl)amino]-5-[(5-chloropyridin-2-yl)amino]pyridin-3-yl}butanoic acid] are <5, 0.01 µM and <5.0.
